Results from paper PMC6125496 (Antimicrobial Agents and Chemotherapy, 2018).
Values after ≈ are worked out from the molar mass of the structure shown.

How the values were obtained:
[1] = system: human renal proximal tubular epithelial cells (HRPTEpiC); assay: Multiplexed HRPTEpiC cytotoxicity assay (cell viability, KIM-1, HSP27)
Protocol: The multiplexed cytotoxicity assay on human renal proximal tubule epithelial cells (HRPTEpiC) was conducted by Eurofins Panlabs (Eurofins Panlabs, Inc., St. Charles, MO) by using an image-based high content analysis (HCA) technique where cells were fixed and stained with nuclear dye to visualize nuclei and fluorescently labeled antibodies to detect drug-induced cellular injury and cellular stress arising from oxidative and chemical stress. Cells were seeded into 384-well plates and grown in RPMI 1640, 10% fetal bovine serum (FBS), 2 mM L-alanyl-L-glutamine, and 1 mM sodium pyruvate in a humidified atmosphere of 5% CO2 at 37°C. […] Compounds were serially diluted 3.16-fold and assayed over 10 concentrations in a final assay concentration of 0.5% dimethyl sulfoxide (DMSO) from 100 μM to 3.7 nM. At the same time, a time zero untreated cell plate was generated. After a 48-h incubation period, cells were fixed and stained with fluorescently labeled antibodies and nuclear dyed to allow visualization of nuclei, injured cells, and stressed cells. Injured cells were detected using a KIM-1 (kidney injury molecule 1) antibody. Stressed cells were detected using an anti-HSP27 (heat shock protein 27) antibody. Cell proliferation was measured by the signal intensity of the incorporated nuclear dye. The cell proliferation assay output was referred to as the relative cell count. To determine the cell proliferation endpoint, the cell proliferation data output was transformed to percentage of control (POC) using the following formula: POC = relative cell count in compound wells/relative cell count in vehicle wells × 100. The signal intensity of the incorporated cellular stress and injury measurements were normalized with the relative cell count from each well. Automated fluorescence microscopy was carried out using a Molecular Devices ImageXpress micro-imager, and images were collected with a 4× objective.

[2] = system: Klebsiella pneumoniae ATCC 43816; assay: microbe, parasite or virus in culture; details: Klebsiella pneumoniae, ATCC43816
Description: (§1) Reference strains are from the German Collection of Microorganisms and Cell Cultures (DSMZ), the American Type Culture Collection (ATCC), the National Collection of Type Cultures (NCTC), and the Medical and Molecular Microbiology, Faculty of Science and Medicine, University of Fribourg, Switzerland.

[3] = system: Citrobacter freundii (16); assay: microbe, parasite or virus in culture; details: Citrobacter freundii
Description: as §1

[4] = system: Stenotrophomonas maltophilia ATCC 13637; assay: microbe, parasite or virus in culture; details: Stenotrophomonas maltophilia, ATCC13637
Description: as §1

[5] = system: Staphylococcus epidermidis ATCC 12228; assay: microbe, parasite or virus in culture; details: Staphylococcus epidermidis, ATCC12228
Description: as §1

[6] = system: Klebsiella pneumoniae ATCC BAA-1904; assay: microbe, parasite or virus in culture; details: Klebsiella pneumoniae, ATCCBAA1904
Description: as §1

[7] = system: Klebsiella pneumoniae (56); assay: microbe, parasite or virus in culture; details: Klebsiella pneumoniae
Description: as §1

[8] = system: Klebsiella pneumoniae ATCC BAA-1905; assay: microbe, parasite or virus in culture; details: Klebsiella pneumoniae, ATCCBAA1905
Description: as §1

[9] = system: Ciprofloxacin-resistant E. coli (19); assay: microbe, parasite or virus in culture; details: Escherichia coli
Description: as §1

[10] = system: Klebsiella pneumoniae NCTC 13439; assay: microbe, parasite or virus in culture; details: Klebsiella pneumoniae, NCTC13439
Description: as §1

[11] = system: Klebsiella pneumoniae NCTC 13442; assay: microbe, parasite or virus in culture; details: Klebsiella pneumoniae, NCTC13442
Description: as §1

[12] = system: Pseudomonas aeruginosa DSM 1117; assay: microbe, parasite or virus in culture; details: Pseudomonas aeruginosa, DSM1117
Description: as §1

[13] = system: Escherichia coli BAA-2471; assay: microbe, parasite or virus in culture; details: Escherichia coli, BAA2471
Description: as §1

[14] = system: Gentamicin-resistant K. pneumoniae (16); assay: microbe, parasite or virus in culture; details: Klebsiella pneumoniae
Description: as §1

[15] = system: Enterobacter cloacae DSM 14563; assay: microbe, parasite or virus in culture; details: Enterobacter cloacae, DSM14563
Description: as §1

[16] = system: Citrobacter kozeri DSM 4595; assay: microbe, parasite or virus in culture; details: Citrobacter, DSM4595
Description: as §1

[17] = system: Escherichia coli ATCC 25922; assay: microbe, parasite or virus in culture; details: Escherichia coli, ATCC25922
Description: as §1

[18] = system: Serratia marcescens DSM 17174; assay: microbe, parasite or virus in culture; details: Serratia marcescens, DSM17174
Description: as §1

[19] = system: Enterobacter aerogenes DSM 30053; assay: microbe, parasite or virus in culture; details: Klebsiella aerogenes, DSM30053
Description: as §1

[20] = system: Enterobacter cloacae (13); assay: microbe, parasite or virus in culture; details: Enterobacter cloacae
Description: as §1

[21] = system: Staphylococcus aureus ATCC 29213; assay: microbe, parasite or virus in culture; details: Staphylococcus aureus, ATCC29213
Description: as §1

[22] = system: Escherichia coli BAA-2469; assay: microbe, parasite or virus in culture; details: Escherichia coli, BAA2469, Ambler class B carbapenemase; NDM-1
Description: as §1

[23] = system: Klebsiella pneumoniae NCTC 13443; assay: microbe, parasite or virus in culture; details: Klebsiella pneumoniae, NCTC13443
Description: as §1

[24] = system: Acinetobacter baumannii ATCC 19606; assay: microbe, parasite or virus in culture; details: Acinetobacter baumannii, ATCC19606
Description: as §1

[25] = system: Enterococcus faecalis DSM 2570; assay: microbe, parasite or virus in culture; details: Enterococcus faecalis, DSM2570
Description: as §1

[26] = system: Escherichia coli (101); assay: microbe, parasite or virus in culture; details: Escherichia coli
Description: as §1

[27] = system: Enterococcus faecium DSM 20477; assay: microbe, parasite or virus in culture; details: Enterococcus faecium, DSM20477
Description: as §1

[28] = system: Ciprofloxacin-resistant K. pneumoniae (27); assay: microbe, parasite or virus in culture; details: Klebsiella pneumoniae
Description: as §1

[29] = system: Citrobacter freundii DSM 30039; assay: microbe, parasite or virus in culture; details: Citrobacter freundii, DSM30039
Description: as §1

[30] = system: Streptococcus pneumoniae DSM 2134; assay: microbe, parasite or virus in culture; details: Streptococcus pneumoniae, DSM2134
Description: as §1

What does the source list for `CNC(C)C1CCC(N)C(OC2C(N)CC(N)C(OC3OCC(C)(O)C(NC)C3O)C2O)O1` (stereo not shown) [GEN, gentamicin]?
cytotoxicity to HRPTEpiC (in words) ([1]; concentrations up to 100 μM, 48-h incubation): not cytotoxic; concentration inducing a significant (5-fold) increase of HSP27 level ([1]; tested up to 100 μM): 22.4 µM; concentration inducing a significant (5-fold) increase of KIM-1 level ([1]; tested up to 100 μM): > 100 µM; MIC [2]: 0.25 µg/mL (≈ 0.523 µM); MIC50 [3]: 1 µg/mL (≈ 2.09 µM); MIC90 [3]: > 32 µg/mL; MIC [4]: 4 µg/mL (≈ 8.38 µM); MIC [5]: ≤ 0.125 µg/mL; MIC [6]: 16 µg/mL (≈ 33.5 µM); MIC50 [7]: 1 µg/mL (≈ 2.09 µM); MIC90 [7]: > 32 µg/mL; MIC [8]: 32 µg/mL (≈ 67 µM); MIC50 [9]: 0.5 µg/mL (≈ 1.05 µM); MIC90 [9]: > 32 µg/mL; MIC [10]: 1 µg/mL (≈ 2.09 µM); MIC [11]: 0.25 µg/mL (≈ 0.523 µM); MIC [12]: 1 µg/mL (≈ 2.09 µM); MIC [13]: > 64 µg/mL; MIC50 [14]: > 32 µg/mL; MIC90 [14]: > 32 µg/mL; MIC [15]: 0.5 µg/mL (≈ 1.05 µM); MIC [16]: 0.25 µg/mL (≈ 0.523 µM); MIC [17]: 1 µg/mL (≈ 2.09 µM); MIC [18]: 0.5 µg/mL (≈ 1.05 µM); MIC [19]: 0.25 µg/mL (≈ 0.523 µM); MIC50 [20]: 32 µg/mL (≈ 67 µM); MIC90 [20]: > 32 µg/mL; MIC [21]: 0.5 µg/mL (≈ 1.05 µM); MIC [22]: > 64 µg/mL; MIC [23]: > 64 µg/mL; MIC [24]: 16 µg/mL (≈ 33.5 µM); MIC [25]: 16 µg/mL (≈ 33.5 µM); MIC50 [26]: 1 µg/mL (≈ 2.09 µM); MIC90 [26]: 2 µg/mL (≈ 4.19 µM); MIC [27]: 8 µg/mL (≈ 16.8 µM); MIC50 [28]: 32 µg/mL (≈ 67 µM); MIC90 [28]: > 32 µg/mL; MIC [29]: 0.5 µg/mL (≈ 1.05 µM); MIC [30]: 8 µg/mL (≈ 16.8 µM)

`C[C@@H](O)[C@H]1C(=O)N2C(C(=O)O)=C(SCCN=CN)C[C@H]12` [IPM, imipenem] was tested. Which MIC [2] did it give?
Its MIC is 1 µg/mL (≈ 3.34 µM).

What about the MIC [4] of the same compound?
Its MIC is > 64 µg/mL.

And the MIC [5]?
The MIC was ≤ 0.125 µg/mL.

What about the MIC [6] of the same compound?
Its MIC is 32 µg/mL (≈ 107 µM).

And the MIC [8]?
The MIC was > 64 µg/mL.

And the MIC [10]?
The MIC was 32 µg/mL (≈ 107 µM).

And the MIC [11]?
The MIC was 16 µg/mL (≈ 53.4 µM).

And the MIC [12]?
The MIC was 2 µg/mL (≈ 6.68 µM).

And the MIC [13]?
The MIC was > 64 µg/mL.

What about the MIC [15] of the same compound?
Its MIC is 1 µg/mL (≈ 3.34 µM).

What about the MIC [16] of the same compound?
Its MIC is 4 µg/mL (≈ 13.4 µM).

And the MIC [17]?
Its MIC is 0.25 µg/mL (≈ 0.835 µM).

What about the MIC [18] of the same compound?
Its MIC is 2 µg/mL (≈ 6.68 µM).

What about the MIC [19] of the same compound?
Its MIC is 2 µg/mL (≈ 6.68 µM).

What about the MIC [21] of the same compound?
Its MIC is ≤ 0.125 µg/mL.

What about the MIC [22] of the same compound?
The MIC was 32 µg/mL (≈ 107 µM).

What about the MIC [23] of the same compound?
Its MIC is > 64 µg/mL.

And the MIC [24]?
Its MIC is 0.5 µg/mL (≈ 1.67 µM).

And the MIC [25]?
The MIC was 1 µg/mL (≈ 3.34 µM).

What about the MIC [27] of the same compound?
The MIC was 4 µg/mL (≈ 13.4 µM).

And the MIC [29]?
Its MIC is 1 µg/mL (≈ 3.34 µM).

What about the MIC [30] of the same compound?
Its MIC is ≤ 0.125 µg/mL.
